Results: US20160158200A1, “Combinations of Hepatitis C Virus Inhibitors” (priority 2013, published 2016)

Tested on: HCV genotype-1a variant with glutamine 30 changed to glutamate in the NS5A protein
Type: cell-based
Settings: test compound titrated with BMS-790052 fixed at 200 nM; genotype 1a Q30E replicon
Summary of the method: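 Synergy was assessed by combining several fixed amounts of an NS5A-targeting compound with a titration of the second compound of interest.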

SMILES | Fold-Synergistic 1a (Q30E)
Cc1onc(-c2ccccc2)c1C(=O)N[C@H](c1ncc(-c2ccc(-c3ccc(-c4cnc([C@@H](NC(=O)c5c(-c6ccccc6)noc5C)C(C)C)[nH]4)cc3)cc2)[nH]1)C(C)C [Compound S-85] | >100 fold
CC(C)[C@H](NC(=O)c1cccc2ccccc12)c1ncc(-c2ccc(-c3ccc(-c4cnc([C@@H](NC(=O)c5cccc6ccccc56)C(C)C)[nH]4)cc3)cc2)[nH]1 [Compound S-86] | >100 fold
CC(C)[C@H](NC(=O)c1cc2ccccc2o1)c1ncc(-c2ccc(-c3ccc(-c4cnc([C@@H](NC(=O)c5cc6ccccc6o5)C(C)C)[nH]4)cc3)cc2)[nH]1 [Compound S-87] | >100 fold
CC(C)[C@H](NC(=O)c1ccc(F)cc1Cl)c1ncc(-c2ccc(-c3ccc(-c4cnc([C@@H](NC(=O)c5ccc(F)cc5Cl)C(C)C)[nH]4)cc3)cc2)[nH]1 [Compound S-88] | >100 fold
CC(C)[C@H](NC(=O)c1ccc(F)cc1F)c1ncc(-c2ccc(-c3ccc(-c4cnc([C@@H](NC(=O)c5ccc(F)cc5F)C(C)C)[nH]4)cc3)cc2)[nH]1 [Compound S-89] | >100 fold
Cc1ccoc1C(=O)N[C@H](c1ncc(-c2ccc(-c3ccc(-c4cnc([C@@H](NC(=O)c5occc5C)C(C)C)[nH]4)cc3)cc2)[nH]1)C(C)C [Compound S-90] | >100 fold
CC(C)[C@H](NC(=O)c1ccccc1N(C)C)c1ncc(-c2ccc(-c3ccc(-c4cnc([C@@H](NC(=O)c5ccccc5N(C)C)C(C)C)[nH]4)cc3)cc2)[nH]1 [Compound S-91] | >100 fold
CC(C)[C@H](NC(=O)c1c(F)cc(F)cc1F)c1ncc(-c2ccc(-c3ccc(-c4cnc([C@@H](NC(=O)c5c(F)cc(F)cc5F)C(C)C)[nH]4)cc3)cc2)[nH]1 [Compound S-92] | >100 fold
CC(C)[C@H](NC(=O)c1ccc(Cl)cc1F)c1ncc(-c2ccc(-c3ccc(-c4cnc([C@@H](NC(=O)c5ccc(Cl)cc5F)C(C)C)[nH]4)cc3)cc2)[nH]1 [Compound S-93] | >100 fold
CC(C)[C@H](NC(=O)c1ccccc1C#N)c1ncc(-c2ccc(-c3ccc(-c4cnc([C@@H](NC(=O)c5ccccc5C#N)C(C)C)[nH]4)cc3)cc2)[nH]1 [Compound S-94] | >100 fold
Cc1nn(-c2ccccc2)nc1C(=O)N[C@H](c1ncc(-c2ccc(-c3ccc(-c4cnc([C@@H](NC(=O)c5nn(-c6ccccc6)nc5C)C(C)C)[nH]4)cc3)cc2)[nH]1)C(C)C [Compound S-95] | >10 fold
Cc1noc(C)c1C(=O)N[C@H](c1ncc(-c2ccc(-c3ccc(-c4cnc([C@@H](NC(=O)c5c(C)noc5C)C(C)C)[nH]4)cc3)cc2)[nH]1)C(C)C [Compound S-96] | >100 fold
Cc1c(F)cccc1C(=O)N[C@H](c1ncc(-c2ccc(-c3ccc(-c4cnc([C@@H](NC(=O)c5cccc(F)c5C)C(C)C)[nH]4)cc3)cc2)[nH]1)C(C)C [Compound S-97] | >100 fold
Cc1cc(C(=O)N[C@H](c2ncc(-c3ccc(-c4ccc(-c5cnc([C@@H](NC(=O)c6cc(C)oc6C)C(C)C)[nH]5)cc4)cc3)[nH]2)C(C)C)c(C)o1 [Compound S-98] | >100 fold
CCn1nc(C)cc1C(=O)N[C@H](c1ncc(-c2ccc(-c3ccc(-c4cnc([C@@H](NC(=O)c5cc(C)nn5CC)C(C)C)[nH]4)cc3)cc2)[nH]1)C(C)C [Compound S-99] | >10 fold
CC(C)[C@H](NC(=O)c1ccno1)c1ncc(-c2ccc(-c3ccc(-c4cnc([C@@H](NC(=O)c5ccno5)C(C)C)[nH]4)cc3)cc2)[nH]1 [Compound S-100] | >100 fold
CC(C)[C@H](NC(=O)c1cc(C(C)(C)C)nn1C)c1ncc(-c2ccc(-c3ccc(-c4cnc([C@@H](NC(=O)c5cc(C(C)(C)C)nn5C)C(C)C)[nH]4)cc3)cc2)[nH]1 [Compound S-101] | >100 fold
